In patent US6063782A, “Pyrrolopyridazine derivatives” (Sankyo Company, Limited, priority 1994, dated 2000):

Columns and labels:
[1] = target: proton.potassium-adenosine triphosphatase (H+.K+-ATPase) (Sus scrofa, UniProt P19156); assay: Proton.potassium-adenosine triphosphatase (H+.K+-ATPase) inhibition test; assay type: biochemical; conditions: microsomal fraction of porcine gastric mucosa, pH=6.85, 37° C.; result given in words only
Description: Proton.potassium-adenosine triphosphatase (H^+.K^+ -ATPase) activation test
According to the method reported by Sachs et al. [J. Biol. Chem., 251, 7690 (1976)], a microsomal fraction obtained from homogenized fresh porcine gastric mucosa by density gradient ultracentrifugation was used as the proton.potassium-adenosine triphosphatase preparation, 10 μl of a solution of a test compound in dimethylsulfoxide were added to 0.75 ml of 70 mM tris-HCl buffer solution (magnesium chloride 5 mM, potassium chloride 20 mM and pH=6.85) containing from 30 to 80 μg/ml (in terms of protein concentration) of the enzyme preparation and the mixture was incubated for 45 minutes at 37° C. with shaking at 200 times per minute. The enzyme reaction was initiated by adding 0.25 ml of 8 mM disodium adenosine triphosphate solution. After 20 minutes of the reaction time, the reaction was stopped by adding 1 ml of a 10k trichloroacetic acid-active carbon (100 mg) solution. The reaction solution was centrifuged (4° C., 3000 rpm, 15 minutes) and the inorganic phosphate in the supernatant prepared from adenosine triphosphate by hydrolysis was measured by colorimetry, according to the method of Yoda and Hokin [Biochem. Biophys. Res. Commun., 40, 880 (1970)]. In a similar manner, the amount of inorganic phosphate was measured in a reaction solution in the absence of potassium chloride. From the difference between the phosphate amounts in the presence and absence of potassium chloride, the proton-potassium-adenosine triphosphatase activity was calculated. Based on the activity value in the control and the values in the test compound at the various concentrations tested, the inhibiting rates (%) and then the 50? inhibiting concentrations (IC50) to proton.potassium-adenosine triphosphatase activity were obtained.

[2] = tested on: gastric acid secretion; assay: Gastric acid secretion activity test using pyloric ligation in rats (Shay rat method); assay type: in vivo; conditions: male SD rats, 20 mg/kg injected into the duodenal region, 4 hours, result given in words only
Description: Gastric acid secretion activity test using pyloric ligation in rats (Shay rat method)
Pyloric ligation was conducted based on the method of Shay et al. [Gastroenterology, 5, 43 (1945)]. Male rats of SD strain were fasted for 24 hours; their abdomens were sectioned during anesthesia under ether. The duodenal and pyloric regions were exposed and the latter was ligated. A solution of a test compound (10 mg/ml) prepared by use of 1.5w parts of dimethylacetamide, 68.5% parts of polyethyleneglycol (PEG-400) and 30% parts of physiological saline solution, was injected into the duodenal region for the dose to be 20 mg/kg by use of a 1-ml syringe and an injection needle (26G). After injection of the test compound, the abdominal region was sutured. The animals were allowed to a stand for 4 hours without feeding food and water and then sacrified with carbon dioxide gas. The stomach was excised and gastric juice was gathered. The gastric juice sample was centrifuged (4° C., 2500 rpm, 15 minutes). The amount of the supernatant was measured to be as the gastric secretion. The acidity of the gastric juice was determined by the amount (ml) of 0.01 N sodium hydroxide solution required for titration of 0.1 ml of the supernatant to pH 7.0 by use of-an auto-titrating apparatus. The value of gastric acid secretion was calculated from the value of gastric secretion and the acidity of gastric juice. The inhibiting rate was obtained from the values of gastric acid secretion of the control group and of the administered group.

[3] = tested on: Helicobacter pylori strains 9470, 9472 and 9474; assay: Antibacterial activity against Helicobacter pylori; assay type: cell-based; conditions: strains 9470, 9472 and 9474, 37° C., 3 days, slightly aerobic; result given in words only
Description: Antibacterial activity against Helicobacter pylori The antibacterial activity of the compounds of the present invention were evaluated by measuring the minimum inhibitory concentration values (MIC) of the present compounds against Helicobacter pylori strains 9470, 9472 and 9474. These strains of Helicobacter pylori were incubated for 4 days on a plate medium. The medium was prepared by dissolving brain heart infusion agar (Product of DIFCO) in a defined amount of distilled water, by sterilization in an autoclave, injecting horse blood (Product of Nihon Seibutsu Zairyo Co.) into each plate for the medium to contain 7% of the blood and by solidifying. Under slightly aerobic conditions, Helicobacter pylori cultivated at 37° C. for 4 days was suspended in a physiological saline solution for its inocular size to be about 10^8 CFU/ml. The suspension was diluted 100 times, and about 10 μl of the diluted suspension was inoculated on a medium for MIC determination. The medium for MIC determination used had the same compounds as those for preculture. […] In a similar way to the preculture, Helicobacter pylori was cultivated at 37° C. for 3 days under slightly aerobic conditions. […] The minimum concentration which gave no bacterial growth was regarded as MIC of the compound of the present invention.

proton.potassium-adenosine triphosphatase (H+.K+-ATPase), sequence (P19156 whole entry): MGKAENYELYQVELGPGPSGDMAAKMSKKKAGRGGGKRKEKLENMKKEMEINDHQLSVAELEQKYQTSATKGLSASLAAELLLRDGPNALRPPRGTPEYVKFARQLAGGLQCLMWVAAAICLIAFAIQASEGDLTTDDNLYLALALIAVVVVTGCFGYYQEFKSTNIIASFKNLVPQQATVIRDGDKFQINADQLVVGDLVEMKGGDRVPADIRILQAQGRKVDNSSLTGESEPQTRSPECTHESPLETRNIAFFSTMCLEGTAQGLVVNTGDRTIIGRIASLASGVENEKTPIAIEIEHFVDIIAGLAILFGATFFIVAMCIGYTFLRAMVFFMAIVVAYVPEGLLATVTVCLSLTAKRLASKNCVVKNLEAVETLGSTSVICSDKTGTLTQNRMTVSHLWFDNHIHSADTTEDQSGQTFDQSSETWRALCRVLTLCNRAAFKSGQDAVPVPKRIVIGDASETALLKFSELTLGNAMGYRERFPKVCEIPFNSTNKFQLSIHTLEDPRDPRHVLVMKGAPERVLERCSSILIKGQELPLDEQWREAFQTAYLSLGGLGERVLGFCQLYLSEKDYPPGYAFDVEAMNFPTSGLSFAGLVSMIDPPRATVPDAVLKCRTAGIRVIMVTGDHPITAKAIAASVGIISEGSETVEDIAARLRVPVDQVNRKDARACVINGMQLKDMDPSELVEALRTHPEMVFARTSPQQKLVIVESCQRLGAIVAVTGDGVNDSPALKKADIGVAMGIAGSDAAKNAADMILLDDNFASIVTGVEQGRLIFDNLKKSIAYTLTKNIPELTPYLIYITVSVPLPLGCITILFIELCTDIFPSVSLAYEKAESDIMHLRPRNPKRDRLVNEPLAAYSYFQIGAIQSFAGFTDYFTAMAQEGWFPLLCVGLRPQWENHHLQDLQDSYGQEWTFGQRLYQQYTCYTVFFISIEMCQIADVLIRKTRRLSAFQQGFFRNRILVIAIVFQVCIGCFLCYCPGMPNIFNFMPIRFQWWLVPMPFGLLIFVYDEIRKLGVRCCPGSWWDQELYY
proton.potassium-adenosine triphosphatase (H+.K+-ATPase), sequence (P18434 whole entry partner): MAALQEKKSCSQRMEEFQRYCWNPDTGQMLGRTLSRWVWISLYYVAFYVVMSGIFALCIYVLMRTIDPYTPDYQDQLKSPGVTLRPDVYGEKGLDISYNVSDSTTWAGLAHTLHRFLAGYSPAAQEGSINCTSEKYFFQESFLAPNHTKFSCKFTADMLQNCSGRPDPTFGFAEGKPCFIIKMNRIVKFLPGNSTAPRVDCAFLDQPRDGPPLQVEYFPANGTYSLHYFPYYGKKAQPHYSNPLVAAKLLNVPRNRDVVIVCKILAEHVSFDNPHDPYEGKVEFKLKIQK

inhibiting concentrations (IC50) to proton.potassium-adenosine triphosphatase activity [1]	minimum inhibitory concentration (MIC) against Helicobacter pylori [3]	Structure (SMILES)	inhibiting rate of gastric acid secretion [2]
excellent activity	excellent antibacterial activity	CC=CCn1c(C)c(C)c2cnnc(OCc3ccc(F)cc3)c21 [Example 1, 1-(2-Butenyl)-7-(4-fluorobenzyloxy)-2,3-dimethylpyrrolo[2,3-d]pyridazine]	excellent activity
excellent activity	excellent antibacterial activity	C=CCn1c(C)c(C)c2cnnc(OCc3ccc(F)cc3F)c21 [Example 9, 7-(2,4-Difluorobenzyloxy)-2,3-dimethyl-1-(2-propenyl)pyrrolo[2,3-d]pyridazine]	excellent activity
excellent activity	excellent antibacterial activity	C=CCn1c(C)c(C)c2cnnc(OCc3ccc(F)cc3)c21 [Example 7, 7-(4-Fluorobenzyloxy)-2,3-dimethyl-1-(2-propenyl)pyrrolo[2,3-d]pyridazine]	excellent activity
excellent activity	excellent antibacterial activity	C/C=C/n1c(C)c(C)c2cnnc(OCc3ccc(F)cc3)c21 [Example 44, 7-(4-Fluorobenzyloxy)-2,3-dimethyl-1-(1-propenyl)-pyrrolo[2,3-d]pyridazine]	excellent activity

Further lines, the molecule ahead of its results:

Structure (SMILES)	inhibiting concentrations (IC50) to proton.potassium-adenosine triphosphatase activity [1]	minimum inhibitory concentration (MIC) against Helicobacter pylori [3]	inhibiting rate of gastric acid secretion [2]
C=CCn1c(C)c(C)c2cnnc(OCc3ccc(Cl)cc3Cl)c21 [Example 17, 7-(2,4-Dichlorobenzyloxy)-2,3-dimethyl-1-(2-propenyl)pyrrolo[2,3-d]pyridazine]	excellent activity	excellent antibacterial activity	excellent activity
CC=CCn1c(C)c(C)c2cnnc(OCc3ccc(F)cc3F)c21 [Example 22, 1-(2-Butenyl)-7-(2,4-difluorobenzyloxy)-2,3-dimethylpyrrolo[2,3-d]pyridazine]	excellent activity	excellent antibacterial activity	excellent activity
Cc1c(C)n(C[C@@H]2C[C@H]2C)c2c(OCc3ccc(F)cc3F)nncc12 (relative stereo) [Example 58, 7-(2,4-Difluorobenzyloxy)-2,3-dimethyl-1-(2-methylcyclopropylmethyl)pyrrolo[2,3-d]pyridazine]	excellent activity	excellent antibacterial activity	excellent activity
CC=CCn1c(C)c(C)c2cnnc(OCc3ccc(Cl)cc3F)c21 [Example 48, 1-(2-Butenyl)-7-(4-chloro-2-fluorobenzyloxy)-2,3-dimethylpyrrolo[2,3-d]pyridazine]	excellent activity	excellent antibacterial activity	excellent activity
